Assay results: BigSolDB 2.1

Details: in DMF

Row | SMILES | solubility (mole fraction) (303.2 K) | solubility (mole fraction) (313.2 K) | solubility (mole fraction) (323.2 K) | solubility (mole fraction) (333.2 K) | solubility (mole fraction) (343.2 K) | solubility (mole fraction) (353.2 K)
1 | C1=Cc2nc1c(-c1ccccc1)c1ccc([nH]1)c(-c1ccccc1)c1nc(c(-c3ccccc3)c3ccc([nH]3)c2-c2ccccc2)C=C1 | 9.76e-05 | 0.000107 | 0.00012 | 0.000136 | 0.000166 | –
2 | Clc1ccc(-c2c3nc(c(-c4ccc(Cl)cc4)c4ccc([nH]4)c(-c4ccc(Cl)cc4)c4nc(c(-c5ccc(Cl)cc5)c5ccc2[nH]5)C=C4)C=C3)cc1 | 2.64e-05 | 3.51e-05 | 4.56e-05 | 6.16e-05 | 8.67e-05 | 0.000122
